# Assays:
# Assay type in all cases: in vivo
# [1] = test system: Echinochloa crus-galli (ECHCG); test: B2 post-emergence herbicidal activity; parameters: key: 5=total damage to plant; 0=no damage to plant; conditions: Test 2a, rate 1000 g/ha, evaluated after 13 days, score 0-5 (5=total damage, 0=no damage)
# Method: (§1) Seeds of a variety of test species were sown in standard soil in pots: Triticum aestivium (TRZAW), Avena fatua (AVEFA), Alopecurus myosuroides (ALOMY), Echinochloa crus-galli (ECHCG), Lolium perenne (LOLPE), Zea mays (ZEAMX), Abutilon theophrasti (ABUTH), Amaranthus retroflexus (AMARE) and Setaria faberi (SETFA). After 8 days cultivation (post-emergence) under controlled conditions in a glasshouse (at 24/16° C., day/night; 14 hours light; 65% humidity), the plants were sprayed with an aqueous spray solution derived from the formulation of the technical active ingredient in acetone/water (50:50) solution containing 0.5% Tween 20 (polyoxyethelyene sorbitan monolaurate, CAS RN 9005-64-5). The test plants were then grown in a glasshouse under controlled conditions (at 24/16° C., day/night; 14 hours light; 65% humidity) and watered twice daily. After 13 days, the test was evaluated (5=total damage to plant; 0=no damage to plant).
# [2] = test system: Zea mays (ZEAMX); test: B2 post-emergence herbicidal activity; parameters: key: 5=total damage to plant; 0=no damage to plant; conditions: Test 2a, rate 1000 g/ha, evaluated after 13 days, score 0-5 (5=total damage, 0=no damage)
# Method: as §1
# [3] = test system: Lolium perenne (LOLPE); test: B2 post-emergence herbicidal activity; parameters: key: 5=total damage to plant; 0=no damage to plant; conditions: Test 2a, rate 1000 g/ha, evaluated after 13 days, score 0-5 (5=total damage, 0=no damage)
# Method: as §1
# [4] = test system: Amaranthus retroflexus (AMARE); test: B2 post-emergence herbicidal activity; parameters: key: 5=total damage to plant; 0=no damage to plant; conditions: Test 2a, rate 1000 g/ha, evaluated after 13 days, score 0-5 (5=total damage, 0=no damage)
# Method: as §1
# [5] = test system: Setaria faberi (SETFA); test: B2 post-emergence herbicidal activity; parameters: key: 5=total damage to plant; 0=no damage to plant; conditions: Test 2a, rate 1000 g/ha, evaluated after 13 days, score 0-5 (5=total damage, 0=no damage)
# Method: as §1
# [6] = test system: Setaria faberi (SETFA); test: B1 pre-emergence herbicidal activity; conditions: Test 1a, rate 1000 g/ha, evaluated after 13 days, score 0-5 (5=total damage, 0=no damage)
# Method: as §1, with “After” for “After 8 days”, “for one day (pre-emergence)” for “(post-emergence)”
# [7] = test system: Abutilon theophrasti (ABUTH); test: B2 post-emergence herbicidal activity; conditions: Test 2a, rate 1000 g/ha, evaluated after 13 days, score 0-5 (5=total damage, 0=no damage)
# Method: as §1
# [8] = test system: Echinochloa crus-galli (ECHCG); test: B1 pre-emergence herbicidal activity; conditions: Test 1a, rate 1000 g/ha, evaluated after 13 days, score 0-5 (5=total damage, 0=no damage)
# Method: as §1, with “After” for “After 8 days”, “for one day (pre-emergence)” for “(post-emergence)”
# [9] = test system: Zea mays (ZEAMX); test: B1 pre-emergence herbicidal activity; parameters: key: 5=total damage to plant; 0=no damage to plant; conditions: Test 1a, rate 1000 g/ha, evaluated after 13 days, score 0-5 (5=total damage, 0=no damage)
# Method: as §1, with “After” for “After 8 days”, “for one day (pre-emergence)” for “(post-emergence)”
# [10] = test system: Lolium perenne (LOLPE); test: B1 pre-emergence herbicidal activity; parameters: key: 5=total damage to plant; 0=no damage to plant; conditions: Test 1a, rate 1000 g/ha, evaluated after 13 days, score 0-5 (5=total damage, 0=no damage)
# Method: as §1, with “After” for “After 8 days”, “for one day (pre-emergence)” for “(post-emergence)”
# [11] = test system: Amaranthus retroflexus (AMARE); test: B1 pre-emergence herbicidal activity; parameters: key: 5=total damage to plant; 0=no damage to plant; conditions: Test 1a, rate 1000 g/ha, evaluated after 13 days, score 0-5 (5=total damage, 0=no damage)
# Method: as §1, with “After” for “After 8 days”, “for one day (pre-emergence)” for “(post-emergence)”
# [12] = test system: Abutilon theophrasti (ABUTH); test: B1 pre-emergence herbicidal activity; parameters: key: 5=total damage to plant; 0=no damage to plant; conditions: Test 1a, rate 1000 g/ha, evaluated after 13 days, score 0-5 (5=total damage, 0=no damage)
# Method: as §1, with “After” for “After 8 days”, “for one day (pre-emergence)” for “(post-emergence)”
smiles,measurement,setting,value
"Cc1nc(-c2cncc(F)c2)ncc1N(C)C(=O)OC(C)(C)C [Compound E2, tert-butyl N-[2-(5-fluoro-3-pyridyl)-4-methyl-pyrimidin-5-yl]-N-methyl-carbamate]","Control of weed species after post-emergence application, ECHCG",[1],5
same,"Control of weed species after post-emergence application, ZEAMX",[2],5
same,"Control of weed species after post-emergence application, LOLPE",[3],2
same,"Control of weed species after post-emergence application, AMARE",[4],0
same,"Control of weed species after post-emergence application, SETFA",[5],5
same,"Control of weed species after pre-emergence application, SETFA",[6],4
same,"Control of weed species after post-emergence application, ABUTH",[7],1
same,"Control of weed species after pre-emergence application, ECHCG",[8],2
same,"Control of weed species after pre-emergence application, ZEAMX",[9],4
same,"Control of weed species after pre-emergence application, LOLPE",[10],0
same,"Control of weed species after pre-emergence application, AMARE",[11],0
same,"Control of weed species after pre-emergence application, ABUTH",[12],0

# Reference: US20200288711A1, “Pyrimidin-4-Carbamate or Urea Derivatives As Herbicides” (Syngenta Participations AG, priority 2017, published 2020)
